pIC50: −log10 of the molar value. Where two headings read alike, the source gives them in different places.
Columns and labels:
Assay type in all cases: cell-based, human
HTT mRNA = assay: RT-qPCR splicing assay, HTT canonical (CJ) and alternative (AJ) junction mRNA; conditions: for AC50: read-out: HTT AJ (AC50, increase in AJ mRNA)
In short: (§1)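 24 h compound exposure of A673 or K562 cells at 37 °C, 10 uM top final concentration, 3-fold steps, DMSO ≤0.25%. Splice-isoform levels determined by qPCR on cDNA from lysates, run at least in duplicate; values expressed as RQ normalized to GAPDH, GUSB or PPIA and DMSO.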

MYB mRNA = assay: RT-qPCR splicing assay, MYB canonical (CJ) and alternative (AJ) junction mRNA; conditions: for AC50: read-out: MYB AJ (AC50, increase in AJ mRNA)
In short: as §1

SMN2 mRNA = assay: RT-qPCR splicing assay panel, SMN2 canonical junction (CJ) mRNA; conditions: canonical junction (CJ) mRNA, RT-qPCR panel, Table 4A, read-out: SMN2, decrease in CJ mRNA levels, IC50
In short: as §1

Target C mRNA = assay: RT-qPCR splicing assay panel, Target C canonical junction (CJ) mRNA; conditions: Homo sapiens, canonical junction (CJ) mRNA, RT-qPCR panel, Table 4A; read-out: Target C, decrease in CJ mRNA levels, IC50
In short: as §1

[1] = Homo sapiens, 24 h, Table 3A, A673 or K562 cells, 24 h treatment
[2] = Homo sapiens, 24 h, Table 3A, A673 or K562 cells, 24 h treatment, read-out: HTT CJ (IC50, decrease in CJ mRNA)
[3] = Homo sapiens, canonical junction (CJ) mRNA, RT-qPCR panel, Table 4A, read-out: HTT, decrease in CJ mRNA levels, IC50
[4] = Homo sapiens, 24 h, Table 3A, A673 or K562 cells, 24 h treatment, read-out: MYB CJ (IC50, decrease in CJ mRNA)
[5] = Homo sapiens, canonical junction (CJ) mRNA, RT-qPCR panel, Table 4A, read-out: MYB, decrease in CJ mRNA levels, IC50
[6] = Table 3A, A673 or K562 cells, 24 h treatment

Structure (SMILES)	pIC50 (HTT mRNA; [2])	pIC50 (HTT mRNA; [3])	pIC50 (MYB mRNA; [4])	pIC50 (MYB mRNA; [5])	pIC50 (SMN2 mRNA; Homo sapiens)	pIC50 (Target C mRNA)	pIC50 (HTT mRNA; Table 3A, A673 or K562 cells, 24 h treatment, read-out: HTT CJ (IC50, decrease in CJ mRNA))	pIC50 (HTT mRNA; canonical junction (CJ) mRNA, RT-qPCR panel, Table 4A, read-out: HTT, decrease in CJ mRNA levels, IC50)	pIC50 (MYB mRNA; Table 3A, A673 or K562 cells, 24 h treatment, read-out: MYB CJ (IC50, decrease in CJ mRNA))	pIC50 (MYB mRNA; canonical junction (CJ) mRNA, RT-qPCR panel, Table 4A, read-out: MYB, decrease in CJ mRNA levels, IC50)	pIC50 (SMN2 mRNA)	AC50 (HTT mRNA; [1]) [nM]	AC50 (MYB mRNA; [1]) [nM]	AC50 (MYB mRNA; [6]) [nM]	AC50 (HTT mRNA; [6]) [nM]
Cc1nc(C)c(-c2cc(O)c(-c3ccc(N4CC[C@@H](NC5CCC5)C4)nn3)cc2F)s1 [Compound 387]	6.00 to 7.00	6.00 to 7.00	5.00 to 6.00	5.00 to 6.00	6.00 to 7.00	5.00 to 6.00	–	–	–	–	–	1000 to 10000	1000 to 10000	–	–
Oc1cc(-c2ccnnc2)ccc1-c1ccc(N2CCC(NC3CCC3)C2)nn1 (stereo not shown) [Compound 388]	5.00 to 6.00	5.00 to 6.00	5.00 to 6.00	5.00 to 6.00	6.00 to 7.00	5.00 to 6.00	–	–	–	–	–	1000 to 10000	1000 to 10000	–	–
COc1cc(-c2cc(O)c(-c3ccc(N4CC[C@@H](NC(C)(C)C)C4)nn3)cc2F)ncn1 [Compound 396]	6.00 to 7.00	6.00 to 7.00	5.00 to 6.00	5.00 to 6.00	> 7.00	5.00 to 6.00	–	–	–	–	–	1000 to 10000	1000 to 10000	–	–
COc1cc(-c2cc(O)c(-c3ccc(N4CC[C@H](NC(C)(C)C)C4)nn3)cc2F)ncn1 [Compound 397]	6.00 to 7.00	6.00 to 7.00	6.00 to 7.00	6.00 to 7.00	6.00 to 7.00	6.00 to 7.00	–	–	–	–	–	100 to 1000	1000 to 10000	–	–
Cc1nc(-c2cc(O)c(-c3ccc(N4CCC(NC5CCC5)C4)nn3)cc2F)cs1 (stereo not shown) [Compound 398]	5.00 to 6.00	5.00 to 6.00	5.00 to 6.00	5.00 to 6.00	5.00 to 6.00	5.00 to 6.00	–	–	–	–	–	1000 to 10000	1000 to 10000	–	–
COc1cc(-c2ccc(-c3ccc(N4CCC(N[C@H]5C[C@@H](O)C5)C4)nn3)c(O)c2)cnn1 (stereo partly shown) [Compound 403, 5-(6-methoxypyridazin-4-yl)-2-[6-(3-{[(1s,3s)-3-hydroxycyclobutyl]amino}pyrrolidin-1-yl)pyridazin-3-yl]phenol]	> 7.00	> 7.00	6.00 to 7.00	6.00 to 7.00	> 7.00	6.00 to 7.00	–	–	–	–	–	100 to 1000	1000 to 10000	–	–
COc1cc(-c2ccc(-c3ccc(N4CCC(N[C@H]5C[C@@H](OC)C5)C4)nn3)c(O)c2)cnn1 (stereo partly shown) [Compound 404, 5-(6-methoxypyridazin-4-yl)-2-[6-(3-{[(1s,3s)-3-methoxycyclobutyl]amino}pyrrolidin-1-yl)pyridazin-3-yl]phenol]	> 7.00	> 7.00	6.00 to 7.00	6.00 to 7.00	> 7.00	6.00 to 7.00	–	–	–	–	–	100 to 1000	1000 to 10000	–	–
COc1nc(-c2ccc(N3CC[C@@H](NC(C)(C)C)C3)nn2)ccc1-c1cnc(C)s1 [Compound 405]	> 7.00	> 7.00	> 7.00	> 7.00	> 7.00	> 7.00	–	–	–	–	–	< 100	< 100	–	–
CN([C@@H]1CCN(c2ccc(-c3ccc(-c4cn[nH]c4)cc3O)nn2)C1)C(C)(C)C [Compound 406, 2-{6-[(3R)-3-[tert-butyl(methyl)amino]pyrrolidin-1-yl]pyridazin-3-yl}-5-(1H-pyrazol-4-yl)phenol]	6.00 to 7.00	6.00 to 7.00	6.00 to 7.00	6.00 to 7.00	6.00 to 7.00	6.00 to 7.00	–	–	–	–	–	100 to 1000	–	1000 to 10000	–
COc1cc(-c2ccc(-c3ccc(N4CC[C@H](N[C@H]5C[C@@H](F)C5)C4)nn3)c(O)c2)ncn1 [Compound 407, 5-(6-methoxypyrimidin-4-yl)-2-{6-[(3R)-3-{[(1s,3s)-3-fluorocyclobutyl]amino}pyrrolidin-1-yl]pyridazin-3-yl}phenol]	6.00 to 7.00	6.00 to 7.00	6.00 to 7.00	6.00 to 7.00	6.00 to 7.00	6.00 to 7.00	–	–	–	–	–	100 to 1000	100 to 1000	–	–
COc1cc(-c2ccc(-c3ccc(N4CC[C@@H](N[C@H]5C[C@@H](F)C5)C4)nn3)c(O)c2)ncn1 [Compound 408, 5-(6-methoxypyrimidin-4-yl)-2-{6-[(3S)-3-{[(1s,3s)-3-fluorocyclobutyl]amino}pyrrolidin-1-yl]pyridazin-3-yl}phenol]	> 7.00	> 7.00	6.00 to 7.00	6.00 to 7.00	> 7.00	6.00 to 7.00	–	–	–	–	–	100 to 1000	100 to 1000	–	–
CN(C)c1cc(-c2ccc(-c3ccc(N4CCC(NC5CCC5)C4)nn3)c(O)c2)cnn1 (stereo not shown) [Compound 409]	< 5.00	< 5.00	< 5.00	< 5.00	< 5.00	< 5.00	–	–	–	–	–	> 10000	> 10000	–	–
Cc1nc(-c2ccc(-c3ccc(N4CCC(NC5CCC5)C4)nn3)c(O)c2)cs1 (stereo not shown) [Compound 412]	–	–	–	–	–	< 5.00	< 5.00	< 5.00	< 5.00	< 5.00	< 5.00	–	–	> 10000	> 10000

Second part, led by results:

pIC50 (HTT mRNA; [2])	pIC50 (HTT mRNA; [3])	pIC50 (MYB mRNA; [4])	pIC50 (MYB mRNA; [5])	pIC50 (SMN2 mRNA; Homo sapiens)	pIC50 (Target C mRNA)	pIC50 (HTT mRNA; Table 3A, A673 or K562 cells, 24 h treatment, read-out: HTT CJ (IC50, decrease in CJ mRNA))	pIC50 (HTT mRNA; canonical junction (CJ) mRNA, RT-qPCR panel, Table 4A, read-out: HTT, decrease in CJ mRNA levels, IC50)	pIC50 (MYB mRNA; Table 3A, A673 or K562 cells, 24 h treatment, read-out: MYB CJ (IC50, decrease in CJ mRNA))	pIC50 (MYB mRNA; canonical junction (CJ) mRNA, RT-qPCR panel, Table 4A, read-out: MYB, decrease in CJ mRNA levels, IC50)	pIC50 (SMN2 mRNA)	Structure (SMILES)	AC50 (HTT mRNA; [1]) [nM]	AC50 (MYB mRNA; [1]) [nM]	AC50 (MYB mRNA; [6]) [nM]	AC50 (HTT mRNA; [6]) [nM]
6.00 to 7.00	6.00 to 7.00	5.00 to 6.00	5.00 to 6.00	6.00 to 7.00	5.00 to 6.00	–	–	–	–	–	Oc1cc(-c2cnc(C(F)F)s2)c(F)cc1-c1ccc(N2CCC(NC3CCC3)C2)nn1 (stereo not shown) [Compound 389]	1000 to 10000	1000 to 10000	–	–
< 5.00	< 5.00	< 5.00	< 5.00	5.00 to 6.00	< 5.00	–	–	–	–	–	Oc1cc(-c2cnc(C(F)(F)F)s2)c(F)cc1-c1ccc(N2CCC(NC3CCC3)C2)nn1 (stereo not shown) [Compound 390]	> 10000	> 10000	–	–
> 7.00	> 7.00	> 7.00	> 7.00	> 7.00	> 7.00	–	–	–	–	–	Cc1ncc(-c2cc(O)c(-c3ccc(N4CCC(NC5CCCC5)C4)nn3)cc2F)s1 (stereo not shown) [Compound 391]	< 100	100 to 1000	–	–
> 7.00	> 7.00	> 7.00	> 7.00	> 7.00	> 7.00	–	–	–	–	–	Cc1ncc(-c2cc(O)c(-c3ccc(N4CC[C@@H](NCC5CC5)C4)nn3)cc2F)s1 [Compound 392]	< 100	< 100	–	–
> 7.00	> 7.00	> 7.00	> 7.00	> 7.00	> 7.00	–	–	–	–	–	Cc1ncc(-c2cc(O)c(-c3ccc(N4CC[C@H](NCC5CC5)C4)nn3)cc2F)s1 [Compound 393]	< 100	< 100	–	–
> 7.00	> 7.00	6.00 to 7.00	6.00 to 7.00	> 7.00	6.00 to 7.00	–	–	–	–	–	Cc1ncc(-c2cc(O)c(-c3ccc(N4CC[C@@H](NCC5CCC5)C4)nn3)cc2F)s1 [Compound 395]	100 to 1000	100 to 1000	–	–
6.00 to 7.00	6.00 to 7.00	5.00 to 6.00	5.00 to 6.00	6.00 to 7.00	6.00 to 7.00	–	–	–	–	–	Cc1nnc(-c2cc(O)c(-c3ccc(N4CC[C@H](NCC5CC5)C4)nn3)cc2F)s1 [Compound 401]	100 to 1000	1000 to 10000	–	–
6.00 to 7.00	6.00 to 7.00	5.00 to 6.00	5.00 to 6.00	6.00 to 7.00	5.00 to 6.00	–	–	–	–	–	Cc1nnc(-c2cc(O)c(-c3ccc(N4CC[C@@H](NCC5CC5)C4)nn3)cc2F)s1 [Compound 402]	100 to 1000	1000 to 10000	–	–
> 7.00	> 7.00	5.00 to 6.00	5.00 to 6.00	> 7.00	6.00 to 7.00	–	–	–	–	–	Cc1ncc(-c2cc(O)c(-c3ccc(N4CCC(NC5CCCCC5)C4)nn3)cc2F)s1 (stereo not shown) [Compound 410]	< 100	100 to 1000	–	–
> 7.00	> 7.00	5.00 to 6.00	5.00 to 6.00	> 7.00	> 7.00	–	–	–	–	–	Cc1ncc(-c2cc(O)c(-c3ccc(N4CC[C@H](NCC5CCC5)C4)nn3)cc2F)s1 [Compound 411]	< 100	100 to 1000	–	–
